Patent US7741346B2, “Angiogenesis inhibitor” (Santen Pharmaceutical Co., Ltd., priority 2001, dated 2010)

Compound | melting point
Cl.O=C(NCc1ccncc1)N(CCC1CCCCC1)Cc1cccs1 | 161.8 to 164.4 °C
CCCCCN(CCC12CC3CC(CC(C3)C1)C2)C(=O)CNCCc1ccncc1.Cl.Cl | 133.7 to 137 °C
Cl.Cl.NN(CCC12CC3CC(CC(C3)C1)C2)C(=O)NCCCc1ccncc1 | ~ 100 °C
CC(C)(C)OC(=O)NCCN(CCC12CC3CC(CC(C3)C1)C2)C(=O)NCCCc1cc[n+](Cc2ccccc2)cc1.[Br-] | 97 °C
Cl.O=C1CCN(CCC23CC4CC(CC(C4)C2)C3)C(=O)N1CCCc1ccncc1 | 177 to 178.5 °C
Cl.O=C1CCN(CCC2CCCCC2)C(=O)N1Cc1ccncc1 | 64 to 74.5 °C
CCCCCN(CCC12CC3CC(CC(C3)C1)C2)C(=O)NC[C@@H]1C[C@@H]1c1ccncc1 (relative stereo) [Compound No. 15-1, cis-1-[2-(1-adamantyl)ethyl]-1-pentyl-3-[2-(4-pyridyl)cyclopropylmethyl]urea] | 128 to 130 °C
O=C(NCCCc1ccncc1)N1CCc2ccccc2C1 [Compound No. 1-5, N-[3-(4-Pyridyl)propyl]-1,2,3,4-tetrahydroisoquinoline-2-carboxamide] | 76 to 79 °C
CN(C)CCN(CCC12CC3CC(CC(C3)C1)C2)C(=O)NCCCc1ccncc1 [Compound No. 1-15, 1-[2-(1-Adamantyl)ethyl]-1-[2-(dimethylamino)ethyl]-3-[3-(4-pyridyl)propyl]urea] | 104 to 106.5 °C
CCCN(CCC12CC3CC(CC(C3)C1)C2)C(=O)NCCCc1ccncc1 [Compound No. 1-16, 1-[2-(1-Adamantyl)ethyl]-1-propyl-3-[3-(4-pyridyl)propyl]urea] | 99 to 103 °C
O=C(NCCCc1ccncc1)N(CCC12CC3CC(CC(C3)C1)C2)CC1CCCC1 [Compound No. 1-21, 1-[2-(1-Adamantyl)ethyl]-1-cyclopentylmethyl-3-[3-(4-pyridyl)propyl]urea] | 155 to 158 °C
O=C(NCCCc1ccncc1)N(CCC12CC3CC(CC(C3)C1)C2)CC1CC1 [Compound No. 1-22, 1-[2-(1-Adamantyl)ethyl]-1-cyclopropylmethyl-3-[3-(4-pyridyl)propyl]urea] | 123 to 125 °C
O=C(NCCCc1ccncc1)N(CCC12CC3CC(CC(C3)C1)C2)Cc1cccs1 [Compound No. 1-27, 1-[2-(1-Adamantyl)ethyl]-3-[3-(4-pyridyl)propyl]-1-(2-thienyl)methylurea] | 142.5 to 144.5 °C
CCCCCCN(CCC12CC3CC(CC(C3)C1)C2)C(=O)NCCCc1ccncc1 [Compound No. 1-29, 1-[2-(1-Adamantyl)ethyl]-1-hexyl-3-[3-(4-pyridyl)propyl]urea] | 119.5 to 121.5 °C
CC(C)=CCN(CCC12CC3CC(CC(C3)C1)C2)C(=O)NCCCc1ccncc1 [Compound No. 1-31, 1-[2-(1-Adamantyl)ethyl]-1-(3-methyl-2-butenyl)-3-[3-(4-pyridyl)propyl]urea] | 93 to 96 °C
CCCCCCCCCCN(CCC12CC3CC(CC(C3)C1)C2)C(=O)NCCCc1ccncc1 [Compound No. 1-32, 1-[2-(1-Adamantyl)ethyl]-1-decyl-3-[3-(4-pyridyl)propyl]urea] | 75 to 76 °C
C=C(C)CN(CCC12CC3CC(CC(C3)C1)C2)C(=O)NCCCc1ccncc1 [Compound No. 1-33, 1-[2-(1-Adamantyl)ethyl]-1-(2-methyl-2-propenyl)-3-[3-(4-pyridyl)propyl]urea] | 108 to 109 °C
O=C(NCCCc1ccncc1)N(CCC12CC3CC(CC(C3)C1)C2)Cc1ccco1 [Compound No. 1-42, 1-[2-(1-Adamantyl)ethyl]-1-furfuryl-3-[3-(4-pyridyl)propyl]urea] | 128 to 130 °C
O=C(NCCCc1ccncc1)N(CCC12CC3CC(CC(C3)C1)C2)Cc1ccccc1 [Compound No. 1-43, 1-[2-(1-Adamantyl)ethyl]-1-benzyl-3-[3-(4-pyridyl)propyl]urea] | 130.5 to 135 °C
O=C(N(CCCc1ccncc1)Cc1ccccc1)N(CCCc1ccccc1)C1CCCCC1 [Compound No. 1-60, 1-Cyclohexyl(phenyl)methyl-1-(3-phenylpropyl)-3-[3-(4-pyridyl)propyl]urea] | 107 to 112 °C
O=C(NCCCc1ccncc1)N(C1CCCCC1)C1CCCCC1 [Compound No. 1-61, 1,1-Dicyclohexyl-3-[3-(4-pyridyl)propyl]urea] | 143 to 145.5 °C

Now from value to compound:

melting point | Compound
96.3 to 99.4 °C | CCCCCN(CCC12CC3CC(CC(C3)C1)C2)C(=O)NCCc1ccc(O)cc1
148 to 149 °C | CCCN(CCCC12CC3CC(CC(C3)C1)C2)C(=O)NCCCc1ccncc1.O=P(O)(O)O
120 to 122.5 °C | Cl.O=C(NCCCc1ccncc1)N(CCC12CC3CC(CC(C3)C1)C2)CCC12CC3CC(CC(C3)C1)C2
120.5 to 131.7 °C | CC(C)CCN(CCC(C)C)C(=O)NCCCc1ccncc1.Cl
170 °C | Cl.O=C1CCN(CCCc2ccncc2)C(=O)N1CCC12CC3CC(CC(C3)C1)C2
94 to 98 °C | O=C(NCCCc1ccncc1)N1CCOCC1 [Compound No. 1-6, N-[3-(4-Pyridyl)propyl]-4-morpholinecarboxamide]
101.5 to 104.5 °C | COCCN(CCC12CC3CC(CC(C3)C1)C2)C(=O)NCCCc1ccncc1 [Compound No. 1-18, 1-[2-(1-Adamantyl)ethyl]-1-(2-methoxyethyl)-3-[3-(4-pyridyl)propyl]urea]
99 to 102 °C | C=CCN(CCC12CC3CC(CC(C3)C1)C2)C(=O)NCCCc1ccncc1 [Compound No. 1-23, 1-[2-(1-Adamantyl)ethyl]-1-allyl-3-[3-(4-pyridyl)propyl]urea]
130 to 134.5 °C | O=C(NCCCc1ccncc1)N(CC=Cc1ccccc1)CCC12CC3CC(CC(C3)C1)C2 [Compound No. 1-34, 1-[2-(1-Adamantyl)ethyl]-1-cinnamyl-3-[3-(4-pyridyl)propyl]urea]
99 to 109 °C | CN(CCC12CC3CC(CC(C3)C1)C2)C(=O)NCCCc1ccncc1 [Compound No. 1-40, 1-[2-(1-Adamantyl)ethyl]-1-methyl-3-[3-(4-pyridyl)propyl)urea]
106 to 115 °C | CCN(CCC12CC3CC(CC(C3)C1)C2)C(=O)NCCCc1ccncc1 [Compound No. 1-41, 1-[2-(1-Adamantyl)ethyl]-1-ethyl-3-[3-(4-pyridyl)propyl]urea]
64.7 to 65.8 °C | CCCCCN(CCC1CCCCC1)C(=O)NCc1ccncc1 [Compound No. 1-52, 1-(2-Cyclohexylethyl)-1-pentyl-3-(4-pyridyl)methylurea]
80 °C | O=C(NCCCc1ccncc1)N(CCC12CC3CC(CC(C3)C1)C2)CCC12CC3CC(CC(C3)C1)C2 [Compound No. 1-56, 1,1-Bis[2-(1-adamantyl)ethyl]-3-[3-(4-pyridyl)propyl]urea]
109.5 to 118 °C | CCCCN(CCC12CC3CC(CC(C3)C1)C2)C(=O)NCCCc1ccncc1 [Compound No. 1-57, 1-[2-(1-Adamantyl)ethyl]-1-butyl-3-[3-(4-pyridyl)propyl]urea]
47 to 50 °C | CCCCCNC(=O)N(CCCc1ccncc1)CCC12CC3CC(CC(C3)C1)C2 [Compound No. 1-66, 1-[2-(1-Adamantyl)ethyl]-3-pentyl-1-[3-(4-pyridyl)propyl]urea]
